One block for each compound: values may come before it.
Experiments:
RAW264.7 [1] = assay: Inhibition of NO production in LPS-stimulated mouse RAW264.7 cells preincubated with compound for 30 mins followed by LPS stimulation and measured after 24 hrs by Griess reagent-based assay; format: functional, cell-based
[2] = target: Prostaglandin G/H synthase 1 (Homo sapiens, UniProt P23219); assay: Inhibition of COX-1 (unknown origin) by colorimetric analysis
[3] = target: T1, Prostaglandin G/H synthase 2 (Homo sapiens, UniProt P35354); assay: Inhibition of COX-2 (unknown origin) by colorimetric analysis
T1 sequence (P35354 whole entry): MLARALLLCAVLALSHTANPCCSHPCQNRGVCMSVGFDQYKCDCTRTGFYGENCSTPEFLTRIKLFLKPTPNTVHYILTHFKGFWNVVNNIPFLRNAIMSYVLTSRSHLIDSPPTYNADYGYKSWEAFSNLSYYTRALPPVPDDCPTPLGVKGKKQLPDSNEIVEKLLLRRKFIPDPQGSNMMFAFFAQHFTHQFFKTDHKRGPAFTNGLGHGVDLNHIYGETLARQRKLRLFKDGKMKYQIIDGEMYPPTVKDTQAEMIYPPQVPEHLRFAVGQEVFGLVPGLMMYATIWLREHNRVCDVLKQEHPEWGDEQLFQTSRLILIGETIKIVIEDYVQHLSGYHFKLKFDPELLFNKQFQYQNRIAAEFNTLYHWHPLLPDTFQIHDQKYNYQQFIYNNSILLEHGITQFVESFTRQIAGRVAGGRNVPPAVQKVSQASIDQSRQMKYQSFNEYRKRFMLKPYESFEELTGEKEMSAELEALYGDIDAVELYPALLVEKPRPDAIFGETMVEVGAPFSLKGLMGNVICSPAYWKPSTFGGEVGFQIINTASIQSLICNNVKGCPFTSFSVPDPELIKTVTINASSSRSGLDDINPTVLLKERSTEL

Mus musculus [4] = assay: Antiinflammatory activity in mouse assessed as inhibition of xylene-induced ear edema at 8 mg/kg, ip pre-treated for 30 mins followed by xylene administration and measured after 1 hrs relative to control; format: functional; settings: time 1.5 hrs
[5] = target: T2, Polyunsaturated fatty acid 5-lipoxygenase (Homo sapiens) (UniProt P09917); assay: Inhibition of 5-LOX (unknown origin) at 100 uM measured after 5 mins by colorimetric method relative to control
T2 sequence (whole entry): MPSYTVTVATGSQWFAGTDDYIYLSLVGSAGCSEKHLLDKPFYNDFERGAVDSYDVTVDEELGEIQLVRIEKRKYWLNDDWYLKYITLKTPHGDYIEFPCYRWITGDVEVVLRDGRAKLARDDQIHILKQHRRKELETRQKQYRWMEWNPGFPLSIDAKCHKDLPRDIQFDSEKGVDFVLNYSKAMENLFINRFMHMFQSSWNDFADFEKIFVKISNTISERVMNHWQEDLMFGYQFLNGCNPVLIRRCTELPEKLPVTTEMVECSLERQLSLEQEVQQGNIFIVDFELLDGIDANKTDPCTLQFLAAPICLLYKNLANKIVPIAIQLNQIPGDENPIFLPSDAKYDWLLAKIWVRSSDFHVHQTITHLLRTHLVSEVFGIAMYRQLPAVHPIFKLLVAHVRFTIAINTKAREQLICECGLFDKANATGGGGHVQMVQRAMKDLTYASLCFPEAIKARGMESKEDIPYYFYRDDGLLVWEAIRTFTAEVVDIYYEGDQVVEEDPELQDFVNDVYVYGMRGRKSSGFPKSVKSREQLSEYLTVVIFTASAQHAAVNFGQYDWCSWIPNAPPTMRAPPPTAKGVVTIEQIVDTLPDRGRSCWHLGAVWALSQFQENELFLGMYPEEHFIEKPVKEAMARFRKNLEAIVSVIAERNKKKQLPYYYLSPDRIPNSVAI

Mus musculus [6] = assay: Antiinflammatory activity in mouse assessed as inhibition of xylene-induced ear edema at 10 mg/kg, IG pre-treated for 30 mins followed by xylene administration and measured after 1 hrs relative to control; format: functional; settings: po, time 1.5 hrs
Rattus norvegicus = assay: Antiinflammatory activity in Wistar rat assessed as inhibition of carrageenan-induced hind paw edema at 50 mg/kg, po pre-treated for 1 hrs followed by carrageenan administration and measured after 3 hrs by plethysmometer relative to control; format: functional; settings: time 4 hrs
[7] = target: T3, Acid-sensing ion channel 1 (Rattus norvegicus) (UniProt P55926); assay: Inhibition of rat ASIC1a ion channel expressed in Xenopus laevis oocytes in pH 6.9 buffer at -50 mV holding potential by voltage clamp electrophysiology recording; format: cell-based
T3 sequence (whole entry): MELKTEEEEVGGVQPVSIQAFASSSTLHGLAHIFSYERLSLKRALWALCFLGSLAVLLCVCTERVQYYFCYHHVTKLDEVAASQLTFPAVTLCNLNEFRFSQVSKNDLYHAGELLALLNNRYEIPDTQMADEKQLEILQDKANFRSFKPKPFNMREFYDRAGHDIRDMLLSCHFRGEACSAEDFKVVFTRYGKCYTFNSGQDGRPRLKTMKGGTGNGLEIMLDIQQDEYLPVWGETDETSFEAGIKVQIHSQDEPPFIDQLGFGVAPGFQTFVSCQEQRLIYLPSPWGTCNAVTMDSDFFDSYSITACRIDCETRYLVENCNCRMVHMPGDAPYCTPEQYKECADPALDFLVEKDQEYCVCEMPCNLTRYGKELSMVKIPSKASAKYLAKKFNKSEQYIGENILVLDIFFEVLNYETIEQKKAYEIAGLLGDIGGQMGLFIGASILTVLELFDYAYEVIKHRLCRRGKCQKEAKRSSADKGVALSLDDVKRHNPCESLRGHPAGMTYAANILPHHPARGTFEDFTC

[8] = target: T3, Acid-sensing ion channel 1 (Rattus norvegicus); assay: Inhibition of rat ASIC1a ion channel expressed in Xenopus laevis oocytes in pH 6.7 buffer at -50 mV holding potential by voltage clamp electrophysiology recording; format: cell-based
[9] = target: T3, Acid-sensing ion channel 1 (Rattus norvegicus); assay: Inhibition of rat ASIC1a ion channel expressed in Xenopus laevis oocytes in pH 6.5 buffer at -50 mV holding potential by voltage clamp electrophysiology recording; format: cell-based
[10] = Inhibition of NO production in LPS-stimulated mouse BV-2 cells preincubated with compound for 1 hrs followed by LPS stimulation and measured after 24 hrs by Griess reagent-based assay; format: functional, cell-based
[11] = Inhibition of LPS-induced NO production in mouse BV-2 cells […]; format: functional, cell-based
Mus musculus [12] = assay: Antiinflammatory activity in Swiss mouse assessed as reduction in croton oil-induced ear edema administered via surface of left ear measured after 6 hrs relative to control; format: functional; parameters: scale not given: the % may be the effect or the level left; settings: route au
Mus musculus [13] = assay: Antiinflammatory activity in croton oil-induced Swiss mouse model of ear edema assessed as reduction in MPO activity administered via surface of left ear measured after 6 hrs relative to control; format: functional; parameters: scale not given: the % may be the effect or the level left; settings: route au
RAW264.7 [14] = assay: Antiinflammatory activity against LPS-stimulated mouse RAW264.7 cells assessed as reduction in iNOS protein expression at 10 uM relative to control; format: functional; parameters: scale not given: the % may be the effect or the level left
RAW264.7 [15] = assay: Antiinflammatory activity against LPS-stimulated mouse RAW264.7 cells assessed as reduction in COX-2 protein expression at 10 uM relative to control; format: functional; parameters: scale not given: the % may be the effect or the level left
Mus musculus [16] = assay: Antiinflammatory activity in Swiss Webster albino mouse assessed as inhibition of carrageenan-induced paw edema at 75 mg/kg, ip preadministered for 1 hrs followed by carrageenan induction and measured after 3 hrs by plethysmometer relative to control; format: functional; settings: time 4 hrs
Mus musculus [17] = assay: Analgesic activity in Swiss Webster albino mouse assessed as inhibition of acetic acid-induced writhing at 125 mg/kg, po pre-treated for 30 mins followed by acetic acid induction and measured for 15 mins relative to control; format: functional; settings: 0.75 h, time 45 min
HT-1080 [18] = assay: Antiinflammatory activity in human HT-1080 cells assessed as inhibition of TNF-alpha production; format: functional
HT-1080 [19] = assay: Antiinflammatory activity in human HT-1080 cells assessed as inhibition of IL-6 production; format: functional
RAW264.7 [20] = assay: Inhibition of NO production in LPS-stimulated mouse RAW264.7 cells at 100 uM incubated for 18 hrs by Griess reagent-based assay; format: functional
[21] = target: Nuclear factor NF-kappa-B complex (Homo sapiens) (UniProt Q00653+P19838+Q04206); assay: Inhibition of TNF-alpha induced NFkappaB activation in HEK293 cells at 100 uM pretreated for 15 mins followed by stimulation with human recombinant TNFalpha and measured after 6 hrs by luminescence based assay relative to control; format: cell-based; settings: time 375.0 min
Nuclear factor NF-kappa-B complex (Homo sapiens), sequence (P19838 whole entry, looked up): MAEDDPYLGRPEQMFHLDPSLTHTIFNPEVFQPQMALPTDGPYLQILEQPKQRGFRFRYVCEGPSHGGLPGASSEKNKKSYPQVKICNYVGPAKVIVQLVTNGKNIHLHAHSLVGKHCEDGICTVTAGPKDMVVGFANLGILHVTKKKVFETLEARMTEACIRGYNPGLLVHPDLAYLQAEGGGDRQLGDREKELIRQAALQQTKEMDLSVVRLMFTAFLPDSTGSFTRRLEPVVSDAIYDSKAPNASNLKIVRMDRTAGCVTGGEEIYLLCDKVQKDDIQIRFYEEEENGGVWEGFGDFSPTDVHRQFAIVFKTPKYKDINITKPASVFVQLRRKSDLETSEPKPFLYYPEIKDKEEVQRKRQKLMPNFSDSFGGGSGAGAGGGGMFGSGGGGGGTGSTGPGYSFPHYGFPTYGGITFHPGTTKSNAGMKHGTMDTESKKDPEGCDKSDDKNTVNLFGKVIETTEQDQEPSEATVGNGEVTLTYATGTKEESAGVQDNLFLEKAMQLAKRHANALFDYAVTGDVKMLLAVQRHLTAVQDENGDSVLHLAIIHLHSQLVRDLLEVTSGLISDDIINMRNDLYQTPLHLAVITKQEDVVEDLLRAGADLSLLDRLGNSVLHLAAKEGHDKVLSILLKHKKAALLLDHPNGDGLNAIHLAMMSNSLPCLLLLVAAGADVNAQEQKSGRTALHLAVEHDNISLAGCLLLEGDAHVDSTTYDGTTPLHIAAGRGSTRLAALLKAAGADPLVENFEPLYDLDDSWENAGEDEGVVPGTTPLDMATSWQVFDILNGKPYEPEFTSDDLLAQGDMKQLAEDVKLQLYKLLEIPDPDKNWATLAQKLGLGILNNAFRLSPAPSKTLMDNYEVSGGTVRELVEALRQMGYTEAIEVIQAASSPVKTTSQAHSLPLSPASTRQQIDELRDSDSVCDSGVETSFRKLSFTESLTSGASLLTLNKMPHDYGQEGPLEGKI
Nuclear factor NF-kappa-B complex (Homo sapiens), sequence (Q00653 whole entry, looked up): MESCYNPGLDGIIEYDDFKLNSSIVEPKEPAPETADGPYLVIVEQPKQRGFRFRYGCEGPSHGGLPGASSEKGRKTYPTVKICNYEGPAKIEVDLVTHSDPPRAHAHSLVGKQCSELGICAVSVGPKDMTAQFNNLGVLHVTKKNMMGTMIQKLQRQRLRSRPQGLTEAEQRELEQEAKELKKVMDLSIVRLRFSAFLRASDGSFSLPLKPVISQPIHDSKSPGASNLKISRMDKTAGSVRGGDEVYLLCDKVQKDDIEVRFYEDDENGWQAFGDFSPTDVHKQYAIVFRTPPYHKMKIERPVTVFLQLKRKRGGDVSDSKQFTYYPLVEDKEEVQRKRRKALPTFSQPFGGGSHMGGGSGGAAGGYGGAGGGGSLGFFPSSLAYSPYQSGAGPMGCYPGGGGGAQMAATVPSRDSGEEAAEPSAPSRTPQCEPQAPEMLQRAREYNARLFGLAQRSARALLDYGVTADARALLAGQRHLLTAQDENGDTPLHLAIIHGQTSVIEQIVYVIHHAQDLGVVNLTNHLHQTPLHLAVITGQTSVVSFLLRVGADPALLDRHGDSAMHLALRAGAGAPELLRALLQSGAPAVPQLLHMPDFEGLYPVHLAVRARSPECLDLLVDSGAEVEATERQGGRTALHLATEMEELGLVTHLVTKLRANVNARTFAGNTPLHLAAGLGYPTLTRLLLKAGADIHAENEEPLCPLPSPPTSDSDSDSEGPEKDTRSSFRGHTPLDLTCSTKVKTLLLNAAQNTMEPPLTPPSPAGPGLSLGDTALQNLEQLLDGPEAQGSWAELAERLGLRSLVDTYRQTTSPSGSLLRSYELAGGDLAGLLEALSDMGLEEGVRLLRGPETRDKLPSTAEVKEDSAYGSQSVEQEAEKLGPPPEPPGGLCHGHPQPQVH
Nuclear factor NF-kappa-B complex (Homo sapiens), sequence (Q04206 whole entry, looked up): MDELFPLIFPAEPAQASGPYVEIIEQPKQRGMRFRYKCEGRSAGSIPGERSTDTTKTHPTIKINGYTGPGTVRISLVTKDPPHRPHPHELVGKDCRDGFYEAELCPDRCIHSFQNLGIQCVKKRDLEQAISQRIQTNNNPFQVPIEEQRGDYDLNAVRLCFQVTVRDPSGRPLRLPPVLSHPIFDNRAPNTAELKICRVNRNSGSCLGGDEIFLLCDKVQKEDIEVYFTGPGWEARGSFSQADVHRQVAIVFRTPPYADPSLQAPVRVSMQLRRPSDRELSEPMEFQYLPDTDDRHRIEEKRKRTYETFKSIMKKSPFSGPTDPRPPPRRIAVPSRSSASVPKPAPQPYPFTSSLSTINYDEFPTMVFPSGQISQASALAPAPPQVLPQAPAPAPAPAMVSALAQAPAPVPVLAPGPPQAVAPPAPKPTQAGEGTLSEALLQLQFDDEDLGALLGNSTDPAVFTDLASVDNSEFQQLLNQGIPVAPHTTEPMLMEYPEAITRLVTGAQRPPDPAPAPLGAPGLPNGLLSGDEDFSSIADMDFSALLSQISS

Prostaglandin G/H synthase 1, sequence (P23219 whole entry): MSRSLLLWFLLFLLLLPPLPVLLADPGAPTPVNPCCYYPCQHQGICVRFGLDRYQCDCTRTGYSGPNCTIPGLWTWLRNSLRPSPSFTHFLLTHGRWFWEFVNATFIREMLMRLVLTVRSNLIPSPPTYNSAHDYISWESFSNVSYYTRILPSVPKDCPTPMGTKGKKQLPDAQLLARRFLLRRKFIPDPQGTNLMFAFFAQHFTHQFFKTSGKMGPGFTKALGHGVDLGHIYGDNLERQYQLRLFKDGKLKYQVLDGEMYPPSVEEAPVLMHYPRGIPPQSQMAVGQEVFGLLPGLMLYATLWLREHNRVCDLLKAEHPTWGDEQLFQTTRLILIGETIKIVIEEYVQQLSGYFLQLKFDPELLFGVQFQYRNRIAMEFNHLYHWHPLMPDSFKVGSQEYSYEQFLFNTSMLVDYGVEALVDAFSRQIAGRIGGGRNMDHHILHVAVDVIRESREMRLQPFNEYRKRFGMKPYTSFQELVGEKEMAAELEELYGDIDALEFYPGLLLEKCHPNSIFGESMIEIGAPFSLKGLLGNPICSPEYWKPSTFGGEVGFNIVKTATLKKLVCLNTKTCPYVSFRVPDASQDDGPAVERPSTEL

SMILES: COc1ccc2c(OC)c3ccoc3nc2c1 [EVOLITRINE]
inhibition in vivo at 50 mg/kg (Rattus norvegicus): 62%

SMILES: COc1cc2c(cc1O)C(Cc1ccc(O)c(Oc3ccc(C[C@@H]4NCCc5cc(OC)c(O)cc54)cc3)c1)NCC2 (stereo not given in full)
inhibition [7]: 98.1%
inhibition [8]: 93.7%
inhibition [9]: 69.3%

SMILES: CN1C[C@H](O)C[C@H]1C(=O)O
Activity (Mus musculus [12]): 26.8%
Activity (Mus musculus [13]): 59.7%

SMILES: CSc1[nH]c2cc(Br)c(Br)c(Br)c2c1SC
Activity (RAW264.7 [14]): 2.8%
Activity (RAW264.7 [15]): 1.6%

SMILES: O=C1Oc2c(c3c(O)cc(O)cc3n2-c2ccc(O)cc2)C(=O)Oc2c1c1c(O)cc(O)cc1n2-c1ccc(O)cc1
inhibition in vivo at 75 mg/kg (Mus musculus [16]): 57.1%
inhibition in vivo at 125 mg/kg (Mus musculus [17]): 49.4%

SMILES: Cc1cc(=O)c2c(O)c([C@H]3CCN(C)C[C@H]3O)c(O)cc2o1
inhibition (INH) (HT-1080 [18]): 47%
inhibition (INH) (HT-1080 [19]): 83%

SMILES: COc1cc2c(cc1O)-c1cc3ccc(OC)c(OC)c3c[n+]1CC2 [COLUMBAMINE]
inhibition at 100 µM (RAW264.7 [20]): 88.1%
inhibition [21]: 63.2%

Further lines, with some results ahead:

IC50 (RAW264.7 [1]): 6.8 µM
SMILES: O=C(C1C=CC(c2ccc3c(c2)OCO3)C(/C=C/c2ccc3c(c2)OCO3)C1C(=O)N1CCCCC1)N1CCCCC1 (stereo not given)

IC50 [2]: 4.9 µM
IC50 [3]: 1.4 µM
SMILES: CC(C)CC(=O)NC[C@H]1CC[C@H](NC(=O)c2nc3ccccc3cc2O)[C@H](O)O1

inhibition [5]: 60.8%
SMILES: C/C=C1/CN2CC[C@@H]1[C@@](CO)(C(=O)OC)c1[nH]c3ccccc3c1C2
inhibition in vivo at 8 mg/kg (Mus musculus [4]): 40.3%

IC50 [2]: 7.6 µM
IC50 [3]: 2.1 µM
SMILES: CC(C)CC(=O)NC[C@H](O)CC[C@@H](CO)NC(=O)c1nc2ccccc2cc1O

inhibition [5]: 79.2%
SMILES: C/C=C1/CN2[C@@H]3C[C@@]45c6ccccc6N[C@]4(O3)[C@@H]2C[C@@H]1[C@@H]5OC(C)=O
inhibition in vivo at 10 mg/kg (Mus musculus [6]): 41.9%

IC50 [10]: 0.5 µM
SMILES: COc1cc(/C=C/C(=O)CC(=O)/C=C/c2ccc(O)c(OC)c2)ccc1O [CURCUMIN]
IC50 [11]: 0.5 µM

Source: ChEMBL document CHEMBL5226289, “Discovery of natural anti-inflammatory alkaloids: Potential leads for the drug discovery for the treatment of inflammation” (Eur J Med Chem, 2021)
